According to patent US20160022751A1, “NOVEL COMPOSITION FOR TREATING ALZHEIMER'S DISEASE AND IMPROVING COGNITIVE FUNCTION OF ALZHEIMER'S PATIENTS” (GANGNEUNG-WONJU NATIONAL UNIVERSITY INDUSTRY ACADEMY …, priority 2014, published 2016):

Tests used:
IDE = IDE protein expression in HMO6 cells (western blot, immunocytochemistry); type: cell-based, human; settings: 5 μg/ml Rg3, 24 h (FIG. 19)
Description: FIG. 19 represents an images showing a result of western blot analysis of the expression of NEP (neprilysin) and IDE (insulin-degrading enzyme) in HMO6 cells (A); graphs representing the above result quantitatively (B and C), and fluorescence microscopic images representing immunocytochemical analyses (D and E). The expression of NEP and IDE in HMO6 cells was analyzed by western blot analysis and immunocytochemistry after treating Aβ42 (5 μM) or Rg3 (2.5 or 5 μg/ml) for 24 h to HMO6 cells in serum-free DMEM medium plated on 60 mm cell culture plates or chamber slides. The results are shown as mean±SD. * P<0.05, ** P<0.01, *** P<0.001.
HMO6 cells were lysed in 1% RIPA buffer containing protease and phosphatase inhibitors (Roche, Mannheim, Germany) and whole-cell lysates were separated on 10% sodium dodecyl sulfate-polyacrylamide gel electrophoresis. After electrophoresis, the proteins were transferred to polyvinylidene fluoride membranes, and the membranes were blocked with 5% skim milk in Tris-buffered saline solution containing 0.1% Tween-20. The membranes were then immunoblotted with primary antibodies, anti-phospho-p38, anti-p38, anti-phospho-ERK, anti-ERK, and anti-f3-actin (Santa Cruz Biotechnology, USA), followed by incubation with horseradish peroxidase-conjugated anti-rabbit or anti-mouse secondary antibodies (Stressgen, USA). […]

ERK = ERK phosphorylation in N2a cells (western blot); type: cell-based, mouse; settings: compared with NGF (FIG. 10)
Source text: The cholinergic marker ChAT and VAChT are known activate the ERK and Akt lower level path for cholinergic gene expression (Williams et al., Neurosci. Lett., 413: 110-114, 2007; Madziar et al., J. Neurochem., 107: 1284-1293, 2007) by controlling the NGF-TrkA signaling pathway. Thus, the present inventor investigated whether ginsenosides Rd and Re regulate activity of ERK and Akt in N2a cells using through western blot analysis. Specifically, N2a cells were lysed in 1% radioimmunoprecipitation assay (RIPA) buffer containing protease and phosphatase inhibitors (Roche, Mannheim, Germany) and whole cell lysates were separated by 10% sodium dodecyl sulfate polyacrylamide gel electrophoresis (SDS-PAGE). After electrophoresis, proteins were transferred onto polyvinylidene fluoride (PVDF) membranes and the membranes were blocked with 5% skim milk in Tris-buffered saline solution containing 0.1% Tween-20. The membrane was then immunoblotted with primary antibodies, anti-phospho-Akt, anti-phospho-extracellular signal-regulated protein kinase (ERK), anti-ChAT and anti-f3-actin (Santa Cruz Biotechnology, Santa Cruz, USA), and this was followed by incubation with horseradish peroxidase-conjugated anti-rabbit or anti-mouse secondary antibodies (Stressgen, USA). Blots were developed using an enhanced chemiluminescence (ECL) solution (Thermo, USA).

N2a cells = test: Morphological analysis of N2a cells (optical microscopy); type: cell-based, mouse; settings: untreated cells mostly rounded (FIG. 9C)
Description: (§1) Followed by the RT-PCR analysis, the present inventor investigated whether ginsenosides Re and Rd induce the expression of MAP-2 and p75 and the differentiation of neurons actually, via immunocytochemistry and morphological analysis using optical microscopic observation.
(§2) Specifically, Cultured N2a cells were fixed in 4% paraformaldehyde (in PBS) for 15 min, washed twice with PBS supplemented with 100 mM glycine for 5 min, and incubated with permeabilization buffer consisting of 0.1% Triton X-100 (Sigma-Aldrich, USA) in PBS for 30 min at room temperature. Blocking was performed with 1% bovine serum albumin (BSA, Sigma-Aldrich, USA) for 30 min at room temperature. Then Microtubule-Associated Protein-2 (MAP-2) or VAChT mouse monoclonal antibody 1:200 (Santa Cruz Biotechnology, USA) was added to 1% BSA in PBS with Tween 20 (PBST) and incubated for 2 h at room temperature. Cells were then washed three times with PBS before fluorescein isothiocyanate (FITC)-conjugated anti-mouse immunoglobulin G (IgG) 1:200 (Cell Signaling Technology, USA) was added to 1% BSA for 1 h at room temperature. The cells were rinsed and counterstained with 4,6-diamidino-2-phenylindole (DAPI, Sigma-Aldrich) for 10 min, followed by two PBS washes. […]

NGFR (p75) = NGFR (p75) mRNA expression in N2a cells (quantitative RT-PCR); type: cell-based, mouse; settings: N2a cells (FIG. 13)
Source text: Since NGF-Trk signal pathway upregulates ChAT and VAChT, it is important to know whether ginsenosides Rd and Re regulate Trk activity directly or at least indirectly. Therefore, the inventor investigated whether the expression of ChAT and VAChT was blocked by treating K252a, an inhibitor against protein kinase C (PKC) and Trk together with ginsenoside Rd or Re, in order to determine more closely whether the expression of cholinergic surface markers and the differentiation of neurons by the treatment of ginsenosides Rd and Re are caused whereby they act NGF-TrkA pathway directly. Particularly, N2a cells were treated with or without K252a (50 nM) in the presence of NGF (100 ng/mL), Re (5 μg/mL) or Rd (5 μg/mL) for 48 h. Total RNA and protein lysates were isolated as described in the Example 4-1 (FIG. 12). […] In addition, the present inventor performed quantitative RT-PCR in order to verify whether the treatment of ginsenosides Rd and Re affect the expression of NGF and NGFR in N2a cells.

MAP-2 = MAP-2 protein immunocytochemistry in N2a cells; type: cell-based, mouse; settings: compared with NGF (FIG. 9A)
Description: as §1, §2

SMILES: CC(C)=CCC[C@](C)(O)[C@H]1CC[C@]2(C)[C@@H]1[C@H](O)C[C@@H]1[C@@]3(C)CC[C@H](O[C@@H]4O[C@H](CO)[C@@H](O)[C@H](O)[C@H]4O[C@@H]4O[C@H](CO)[C@@H](O)[C@H](O)[C@H]4O)C(C)(C)[C@@H]3CC[C@]12C [ginsenoside Rg3]
- IDE expression in cells (IDE): distinctively expressed

SMILES: CC(C)=CCC[C@](C)(O[C@@H]1O[C@H](CO)[C@@H](O)[C@H](O)[C@H]1O)[C@H]1CC[C@]2(C)[C@@H]1[C@H](O)C[C@@H]1[C@@]3(C)CC[C@H](O)C(C)(C)[C@@H]3[C@@H](O[C@@H]3O[C@H](CO)[C@@H](O)[C@H](O)[C@H]3O[C@@H]3O[C@@H](C)[C@H](O)[C@@H](O)[C@H]3O)C[C@]12C [ginsenoside Re]
- ERK activation (phosphorylation) (ERK): could activate ERK and Akt with phosphorylation as much as NGF
- morphological changes of N2a cells (N2a cells): induced the production of distinctive multiple projections
- NGFR (p75) mRNA level (NGFR (p75)): significantly increased
- production of MAP-2 protein (MAP-2): stimulated effectively the production of MAP-2 protein

SMILES: CC(C)=CCC[C@](C)(O[C@@H]1O[C@H](CO)[C@@H](O)[C@H](O)[C@H]1O)[C@H]1CC[C@]2(C)[C@@H]1[C@H](O)C[C@@H]1[C@@]3(C)CC[C@H](O[C@@H]4O[C@H](CO)[C@@H](O)[C@H](O)[C@H]4O[C@@H]4O[C@H](CO)[C@@H](O)[C@H](O)[C@H]4O)C(C)(C)[C@@H]3CC[C@]12C [ginsenoside Rd]
- ERK activation (phosphorylation) (ERK): could activate ERK and Akt with phosphorylation as much as NGF
- morphological changes of N2a cells (N2a cells): induced the production of distinctive multiple projections
- NGFR (p75) mRNA level (NGFR (p75)): significantly increased
- production of MAP-2 protein (MAP-2): stimulated effectively the production of MAP-2 protein
